{
  "source": "patent US20220265818A1",
  "about": "“CHIMERIC ANTIGENS FOR TREATING VIRAL INFECTION” (AKSHAYA BIO INC., priority 2019, published 2022)",
  "tested_on": "HBV",
  "assay": "Liver HBV DNA in HBV transgenic mice",
  "settings": "ADV at 5 mg/kg/day, oral gavage",
  "data": [
    {"molecule": "CC(C)(C)C(=O)OCOP(=O)(COCCn1cnc2c(N)ncnc21)OCOC(=O)C(C)(C)C", "note": "[ADV, Adefovir dipivoxil]", "values": [
      {"measurement": "liver HBV DNA", "value": "reduced liver HBV DNA"}
    ]}
  ]
}
